Measurements: patent publication US8445006B2, “Biomolecular coating for implants” (Georgia Tech Research Corporation, priority 2006, dated 2013)

Columns and labels:
[1] = system: HFN7.1 monoclonal antibody; assay: ELISA with HFN7.1 monoclonal antibody; type: binding; settings: passively adsorbed ligands, various coating concentrations
Procedure: An ELISA was used to probe for the biological activity of the FNIII7-10 fragment compared to pFN. FNIII7-10 or pFN was adsorbed onto either uncoated or Neutravidin-coated (100 μg/ml) 96-well black U-well Dynex plates at various concentrations for 30 min. Following incubation in blocking buffer (0.25% BSA, 0.1 M EDTA, 2.5% Tween-20, 0.00125% NaN3), HFN7.1 antibody (0.6 μg/ml in blocking buffer) was added for 1 h at 37° C., and, after washing with blocking buffer, surfaces were incubated in alkaline phosphatase-conjugated anti-mouse IgG (0.6 μg/ml) for 1 h at 37° C. Washed surfaces were exposed to 4-methylumbelliferyl phosphate (25 mg/ml in 10 mM diethanolamine, pH 9.5). The resulting fluorescence was quantified using an HTS 7000 Plus plate reader (Perkin Elmer, Foster City, Calif.) at 360 nm excitation and 465 nm emission.

MC3T3-E1 cells = assay: Cell proliferation rate by BrdU incorporation; type: cell-based, murine; settings: vs RGD-tethered surfaces at low and high peptide surface densities
Procedure: Cells were seeded on surfaces in 10% serum for 16 h, and BrdU (3.1 μg/ml) was added for the last 4 h. After washing with DPBS, samples were fixed in 70% cold ethanol for 10 min, denatured in 4 M HC1 for 20 min, neutralized in 50 mM NaCl in 100 mM Tris-HCI (pH 7.4), washed, and blocked with 5% FBS+1% heat-denatured BSA. Cultures were incubated in anti-BrdU antibody (1:1000) and AlexaFluor488-conjugated anti-mouse IgG (1:200). Nuclei were counter-stained with Hoechst dye (1:10,000). Fluorescent images were used to quantify the number of cells positive for BrdU relative to total cell nuclei using an in-house image analysis routine. Ten representative fields were analyzed per well with multiple wells for each surface condition.

α5β1 integrin = assay: Integrin binding by cross-linking/extraction/reversal technique; type: cell-based, rat; settings: equimolar tethered brushes; vs RGD-tethered brushes and serum-exposed titanium
Procedure: (§1) In vitro evaluation of these engineered titanium surfaces was performed using primary rat bone marrow stromal cells since this heterogeneous population contains osteoprogenitors, and human bone marrow stromal cells are currently used in clinical applications. Cell adhesion was examined using a centrifugation assay that applies a controlled detachment force. To allow direct comparisons between ligand-tethered surfaces, an equimolar ligand density of 0.9 pmol/cm^2 was used; this value represents the highest ligand density that could be ascribed for both surfaces to be equimolar. […] As a complementary test of integrin specificity, integrin binding was quantified using a biochemical cross-linking/extraction/reversal technique.

[2] = system: bone marrow stromal cells; assay: Calcium incorporation (matrix mineralization) assay; type: cell-based, rat; settings: 14 days in culture; vs untreated titanium
Procedure: Primary bone marrow stromal cells were harvested from the femora of young adult male Wistar rats in accordance with an IACUC-approved protocol. After excision, hindleg femora and tibiae were cleared of soft tissue and rinsed in growth medium (α-minimal essential medium supplemented with 10% fetal bovine serum, 1% penicillin-streptomycin, and 0.3 μg/ml amphotericin B). The ends of the long bones were then removed and the marrow space was flushed with culture medium (3-5 ml), using a syringe with an 18-gauge needle. Marrow isolates were pooled, centrifuged, resuspended in growth medium, and seeded for adhesion-dependent selection on tissue culture polystyrene dishes. Non-adherent hematopoietic cells were removed during subsequent medium exchanges, which occurred every other day. Cells were subcultured every two days according to standard techniques. For in vitro osteogenic assays, cells were seeded at 10,000 cells/cm^2 in growth medium. After 24 h, cultures were maintained in osteogenic medium consisting of growth medium supplemented with 50 μg/ml L-ascorbic acid and 3 mM sodium β-glycerophosphate.
Calcium content was determined by dissolving mineralized deposits with 1 N acetic acid overnight. […] The absorbance of the resulting samples was measured at 650 nm and compared to a linear standard curve of CaCl2 in 1 N acetic acid.

[3] = system: rat femur segmental defect; assay: 8 mm segmental defect in the rat femur, micro-CT bone formation; type: in vivo; settings: coated PCL scaffolds (20 μg/ml) vs PCL and empty defects; 4 and 12 weeks
Procedure: The ability of GFOGER peptide (SEQ ID NO:1)-coated polymeric scaffolds to heal critical sized defects was examined. […] A 8 mm segmental defect in the rat femur was used to evaluate bone repair. Three experimental groups were evaluated: (i) empty defect controls, (ii) PCL scaffolds, and (iii) GFOGER peptide (SEQ ID NO:1)-coated PCL scaffolds. Polycaprolactone (PCL) is a clinically used polymer widely used in orthopaedic and soft tissue applications. Scaffolds were passively coated with GFOGER peptide (SEQ ID NO:1) (20 μg/ml) as described above. Bone formation was assessed non-invasively via micro-computed tomography (micro-CT) at 4 and 12 weeks. […] No differences in bone formation were observed between PCL and empty defects.

αvβ3 integrin = assay: Integrin binding by cross-linking/extraction/reversal technique; type: cell-based, rat; settings: equimolar tethered brushes; vs FNIII7-10 support
Procedure: as §1

## FNIII7-10: monobiotinylated recombinant fibronectin fragment spanning the 7-10th type III repeats of fibronectin; α5β1 integrin ligand
[1]
  HFN7.1 binding (biological activity): equivalent functional activity
MC3T3-E1 cells
  cell proliferation rate (BrdU incorporation): two-fold increase
α5β1 integrin
  bound α5β1 integrin: significantly higher levels of bound α5β1 integrin

## GGYGGGPC(GPP)5GFOGER(GPP)5GPC [GFOGER peptide]
[2]
  calcium-based mineral deposition: three-fold enhancement
[3]
  bone formation (micro-CT): enhancement in bone formation

## GRGDSPC [RGD peptide, linear RGD oligopeptide purchased from BACHEM; primarily supports αvβ3-mediated adhesion, reference compound]
αvβ3 integrin
  bound αvβ3 integrin: higher levels of bound αvμ3
